Structures can show the parent of a compound that is named as a salt. Where two headings read alike, the source gives them in different places.
How the values were obtained:
[1] = Absorbance of chemical solution at 400 nm (OD400); format: physicochemical
pH of chemical solution = format: physicochemical
bovine coagulated blood = assay: Decoloring screening: heme eluted from PFA-fixed bovine coagulated blood, absorbance of supernatant; settings: Table 2, 10 wt % aqueous solution, 37° C. overnight; for 700 nm calibrated 420 nm Average: decoloring activity OD420-OD700 of supernatant
Experimental: A high-throughput screening system for evaluating the decoloring ability of various compounds was constructed. The screening system involved adding an aqueous solution of each compound to bovine coagulated blood and then measuring the absorbance of heme collected in the supernatant.
Specifically, to bovine blood, an equal amount of 8% PFA solution was added, and reacted at 4° C. overnight. The mixed liquid was centrifuged at 1500×g for 5 minutes, and the supernatant containing PFA was discarded. Then, the same amount of PBS as the original volume of blood was added to prepare a coagulated blood sample. To 150 μL of 10 wt % aqueous solution of each compound, 50 μL of the coagulated blood sample was added, and reacted at 37° C. overnight. The reaction solution was centrifuged at 1500×g for 5 minutes, and then 100 μL of the supernatant was added to a plate so as to be subjected to absorbance measurement. A sample which is suspended in water instead of being dissolved in the water has a weak decoloring effect, but none the less has a high absorbance value. […]

mouse hemisphere = assay: Delipidation and clearing of mouse hemisphere; settings: basic chemicals with pH of 11 to 12; 10 wt %, 37° C., 3 days, then CUBIC-2A
Experimental: Subsequently, the delipidation efficiency of the series of compounds in mammalian tissue was examined. […] The transmittance of the brain tissue was measured, and then the brain tissue was washed with PBS and was disrupted. […] It was thus shown that the above basic chemicals and some neutral chemicals were better than the detergents from the viewpoint of permeability with respect to tissue. […] Subsequently, the mouse hemisphere was subjected to refractive index adjustment with CUBIC-2A. […] Accordingly, #0414 (N-butyldiethanolamine) was selected as a highly-efficient delipidation chemical.

mouse spleen = assay: Decoloring of mouse spleen (OD420 of supernatant, transmissive image); settings: 10 wt % solution, 37° C. overnight
mouse brain = assay: Swelling and clearing of delipidated mouse brain; settings: brain delipidated with CUBIC-1, shaken 3 days
[2] = Table 2, absorbance of chemical solution at 400 nm

CNCC(O)c1cccc(O)c1.Cl (racemic) [#1142, DL-Phenylephrine hydrochloride]
OD400 [1]: 0.060 | pH (pH of chemical solution): 6.7

Cl.O=C(O)CCP(CCC(=O)O)CCC(=O)O [#0197, Tris(2-carboxyethyl)phosphine hydrochloride]
400 nm [1, 2]: 0.047 | pH (pH of chemical solution; Table 2, chemical solution): 2.3

CN(C)CCSSCCN(C)C [#0295, Bis(2-dimethylaminoethyl) disuflide dihydrochloride]
OD400 ([1]; Table 3): 0.047 | pH (pH of chemical solution; Table 3): 5.3

CCCC[N+](CCCC)(CCCC)Cc1ccccc1.[Cl-] [#0307, Benzyltributylammonium chloride]
OD400 ([1]; Table 3): 0.048 | pH (pH of chemical solution; Table 3): 7.0

CCCCCCCCCCCCCC[N+](C)(C)Cc1ccccc1 [#0362, Benzyldimethyltetradecylammonium chloride hydrate]
Integrated value 500-700 nm Average (bovine coagulated blood): 1.74 | 700 nm calibrated 420 nm Average (bovine coagulated blood): 2.13 | 400 nm [1, 2]: 0.053 | pH (pH of chemical solution; Table 2, chemical solution): 6.6

CN(CCCN)CCCN [#0380, 3,3′-Diamino-N-methyldipropylamine]
400 nm [1, 2]: 0.065 | pH (pH of chemical solution; Table 2, chemical solution): 13.0

OCCNCc1ccccc1 [#0389, N-Benzylethanolamine]
transparency of mouse hemispheres (mouse hemisphere): selected

NCC1CCOCC1 [#0407, 4-Aminomethyltetrahydropyran]
400 nm [1, 2]: 0.049

CCCCN(CCO)CCO [#0414, N-Butyldiethanolamine]
transparency of mouse hemispheres (mouse hemisphere): selected

[Cl-].c1ccc(C[P+](c2ccccc2)(c2ccccc2)c2ccccc2)cc1 [#0425, Benzyltriphenylphosphonium chloride]
400 nm [1, 2]: 0.048 | pH (pH of chemical solution; Table 2, chemical solution): 9.3

CC(C)(C)CC(C)(C)c1ccc(OCCOCC[N+](C)(C)Cc2ccccc2)cc1 [#0441, Benzethonium chloride]
400 nm [1]: 0.049 | pH (pH of chemical solution): 6.4

C1CCC2=NCCCN2CC1 [#0594, 1,8-Diazabicyclo[5.4.0]-7-undecene]
400 nm [1, 2]: 0.05 | pH (pH of chemical solution; Table 2, chemical solution): 13.5

CCCCCCCCCCCC[n+]1ccccc1 [#0635, 1-Dodecylpyridinium chloride]
Integrated value 500-700 nm Average (bovine coagulated blood): 3.67 | 700 nm calibrated 420 nm Average (bovine coagulated blood): 3.66

Cc1cc(=O)n(-c2ccccc2)n1C [#0640, 2,3-Dimethyl-1-phenyl-5-pyrazolone]
400 nm [1, 2]: 0.048 | OD400 ([1]; Table 3): 0.048 | pH (pH of chemical solution; Table 2, chemical solution): 7.5 | pH (pH of chemical solution; Table 3): 7.5

C[n+]1ccc(-c2cc[n+](C)cc2)cc1 [#0652, 1,1′-Dimethyl-4,4′-bipyridinium dichloride]
400 nm [1, 2]: 0.082 | pH (pH of chemical solution; Table 2, chemical solution): 6.0

CCC(N)CCN (centres unmarked) [#0678, 1,3-Diaminopentane]
400 nm [1, 2]: 0.048

CCCCCCCCCCCC[N+](C)(C)CCCS(=O)(=O)O [#0694, Dodecyldimethyl(3-sulfopropyl)ammonium hydroxide]
400 nm [1, 2]: 0.55 | 400 nm ([1]; Table 2, absorbance of chemical solution at 400 nm, listed as #0661): 0.051 | pH (pH of chemical solution; Table 2, chemical solution, listed as #0661): 6.5

NCCCNCCCN [#0785, 3,3′-Diaminodipropylamine]
400 nm [1, 2]: 0.05 | OD400 ([1]; Table 3): 0.05 | pH (pH of chemical solution; Table 2, chemical solution): 13.8 | pH (pH of chemical solution; Table 3): 13.8

CN(C)CCOC(c1ccccc1)c1ccccc1.Cl [#0909, Diphanhydramine hydrochloride]
OD400 ([1]; Table 3): 0.048 | pH (pH of chemical solution; Table 3): 7.0

CCn1ccnc1 [#0938, 1-Ethylimidazole]
mouse spleen decoloring activity (mouse spleen): highest mouse spleen decoloring activity

NC[C@H](O)[C@@H](O)[C@H](O)[C@H](O)CO [#0956, D-Glucoomine (FocusClear ™), reference compound]
OD400 ([1]; Table 3): 0.280

CCCCCCCCCCCC[N+](C)(C)C [#1021, Dodecyltrimethylammonium chloride]
400 nm [1, 2]: 0.048 | pH (pH of chemical solution; Table 2, chemical solution): 7.5

OCCN1CC1 [#1061, 1-(2-Hydroxyethyl)ethyleneimine]
400 nm [1, 2]: 0.048 | pH (pH of chemical solution; Table 2, chemical solution): 13.1

NCC(O)CN [#1062, 1,3-Diamino-2-propanol]
Integrated value 500-700 nm Average (bovine coagulated blood): 0.50

c1cnccn1 [#1085, Pyrazine]
400 nm [1, 2]: 0.051 | pH (pH of chemical solution; Table 2, chemical solution): 8.6

C1CCC2=[N+](CC1)CCCN2.O=C1N=C([O-])c2ccccc21 [#1181, Phtalimide DBU salt]
OD400 ([1]; Table 3): 0.049 | pH (pH of chemical solution; Table 3): 6.0

CCCCCCCCCCCCCCCC[N+](C)(C)C [#1235, Hexadecyltrimethylammonium Chloride]
400 nm [1]: 0.048 | pH (pH of chemical solution): 6.6

CC(CN)CCCN (centres unmarked) [#1267, 2-Methyl-1,5-diaminopentane]
pH (pH of chemical solution; Table 2, chemical solution): 12.8

CNC(=O)c1cccnc1 [#1283, N-Methylnicotinamide]
700 nm calibrated 420 nm Average (bovine coagulated blood): 2.96 | OD400 ([1]; Table 3): 0.003

c1c[nH]cn1 [#1352, imidazole]
swelling of mouse brain (mouse brain): high-degree of swelling

C[C@H](CCC(=O)[O-])[C@H]1CC[C@H]2[C@@H]3CC[C@@H]4C[C@H](O)CC[C@]4(C)[C@H]3C[C@H](O)[C@]12C.[Na+] [#1507, Sodium deoxycholate]
pH (pH of chemical solution; Table 2, chemical solution, listed as #0562): 8.3

CCN(CC)CCO [#1575, 2-Diethylaminoethanol]
400 nm [1, 2]: 0.06 | pH (pH of chemical solution; Table 2, chemical solution): 12.8

Cc1cccc(C)c1NC1=NCCCS1.Cl [#1612, Xylazine hydrochloride]
OD400 ([1]; Table 3): 0.063 | pH (pH of chemical solution; Table 3): 6.8

C[N+](C)(C)Cc1ccccc1.[OH-] [#03887, Benzyltrimethylammonium hydroxide]
400 nm [1, 2]: 0.054 | pH (pH of chemical solution; Table 2, chemical solution, listed as #0398): 12.9

Dodacene-1 LAS (JIS K 3361-1990) [#0672]
400 nm [1, 2]: 0.081 | pH (pH of chemical solution; Table 2, chemical solution): 5.9

Hydrazine carbonate [#1052]
OD400 [1]: 0.047 | pH (pH of chemical solution): 10.2

Tween ® 40 [#1465]
400 nm [1, 2]: 0.083 | pH (pH of chemical solution; Table 2, chemical solution): 6.4

Reference: US20190086302A1, “COMPOSITION FOR PREPARING BIOLOGICAL MATERIAL HAVING EXCELLENT LIGHT TRANSMISSIVITY AND USE OF COMPOSITION” (RIKEN, priority 2016, published 2019)
